Assay [1] concerns MCF10A wild type (WT) and PTEN knockout (PT−/−) cells. As to the kind of experiment: crystal violet cell growth, 96 hours after treatment. In kind it is cell-based.
Protocol: MCF10A wild type (WT) and PTEN knockout (PT−/−) cells were seeded into 48-well plate with density of 4000 cells/well. The next day, the growth medium was changed to a medium containing Tacrolimus. Medium containing 0.1% DMSO was used as negative control. Ninety-six (96) hours after treatment, the cells were stained with crystal violet for cell growth. The cell growth of negative control group is set as 100%.
The next day, the growth medium was changed to a medium containing CsA (FIG. 9A) or an analog as depicted in each panel in FIG. 9B-D. Medium containing 0.1% DMSO was used as negative control. Ninety-six (96) hours after treatment, the cells were stained with crystal violet for cell growth. The cell growth of negative control group is set as 100%.
Medium containing 0.1% DMSO was used as negative control. Ninety-six (96) hours after treatment, the cells were stained with crystal violet and measured for cell growth. Cell growth of the negative control group is set as 100%.
MCF10A wild type (WT) and PTEN knockout (PT−/−) cells were seeded into 48-well plate with density of 4000 cells/well. The next day, the growth medium was changed to medium containing a compound, CsA or its analogs of Formula III-VIII. Medium containing 0.1% DMSO, was used as a negative control. Ninety six (96) hours after treatment, the cells were stained with crystal violet for cell growth. The cell growth of negative control group was set as 100%.
MCF10A wild type (WT) and PTEN knockout (PT−/−) cells were seeded into 48-well plates at a density of 4000 cells/well. […] Medium containing 0.1% DMSO was used as negative control. Ninety-six (96) hours after treatment, the cells were stained with crystal violet and measured for cell growth. Cell growth of the negative control group was set as 100% (FIG. 10A).
The next assay relates to MDA-MB-468 cells (PT−/−). The assay is described as follows: crystal violet cell growth, seven days after treatment. It is filed as cell-based. The settings on record: MDA-MB-468, seven days; FIG. 10B. As to the method: The next day, the growth medium was changed to medium containing CsA and NIM-811. Medium containing 0.1% DMSO was used as negative control. The medium was replenished once. Seven days after treatment, the cells were stained with crystal violet and measured for cell growth. Cell growth of the negative control group is set as 100%.
MDA-MB-468 cells (PT−/−) were seeded into 48-well plates at a density of 5000 cells/well. The next day, the growth medium was changed to medium containing CsA and NIM-811. Medium containing 0.1% DMSO was used as negative control. The medium was replenished once. Seven days after treatment, the cells were stained with crystal violet and measured for cell growth. Cell growth of the negative control group is set as 100% (FIG. 10B).

SMILES strings stand for the structures.

Take `C=CC[C@@H]1/C=C(\C)C[C@H](C)C[C@H](OC)[C@H]2O[C@@](O)(C(=O)C(=O)N3CCCC[C@H]3C(=O)O[C@H](/C(C)=C/[C@@H]3CC[C@@H](O)[C@H](OC)C3)[C@H](C)[C@@H](O)CC1=O)[C@H](C)C[C@@H]2OC` [tacrolimus]: the “preferential killing of PTEN null cells” value in assay [1] (MCF10A WT vs PT−/−, FIG. 8) is “does not preferentially kill PTEN null cells”. In assay [1] (physiologic dosing, FIG. 8), the “inhibition of cancer cells” value was “does not inhibit cancer cells at physiologic dosing”.

Regarding `C/C=C/C[C@@H](C)[C@@H](O)[C@H]1C(=O)N[C@@H](CC)C(=O)N(C)CC(=O)N(C)[C@@H]([C@@H](C)CC)C(=O)N[C@@H](C(C)C)C(=O)N(C)[C@@H](CC(C)C)C(=O)N[C@@H](C)C(=O)N[C@H](C)C(=O)N(C)[C@@H](CC(C)C)C(=O)N(C)[C@@H](CC(C)C)C(=O)N(C)[C@@H](C(C)C)C(=O)N1C` [NIM-811], the “cell growth inhibition activity compared to CsA” value with MDA-MB-468 cells (PT−/−) is on record as “better cell growth inhibition activity compared to CsA”. Moreover, the “differential inhibition of PT−/− MCF10A cells vs. isogenic wild type cells, compared to CsA” value in assay [1] (96 hours, FIG. 10A) is “increased activity compared to CsA”.

Source of the values: patent US9387230B2, “Methods to treat cancer using cyclosporine and cyclosporine derivatives” (priority 2011, dated 2016).
